The record followed here is PMC4021826, “Functional characterization of a xylose transporter in Aspergillus nidulans” (Biotechnology for Biofuels, 2014).

The target of this experiment is T1, XtrD (Aspergillus nidulans, UniProt Q5BGT0).
T1 construct: gene ANIA_00250; full-length xtrD in modified vector pRH195 (HXT7 promoter), expressed in S. cerevisiae EBY.VW4000 lacking hexose transporters
T1 sequence (Q5BGT0 1-547): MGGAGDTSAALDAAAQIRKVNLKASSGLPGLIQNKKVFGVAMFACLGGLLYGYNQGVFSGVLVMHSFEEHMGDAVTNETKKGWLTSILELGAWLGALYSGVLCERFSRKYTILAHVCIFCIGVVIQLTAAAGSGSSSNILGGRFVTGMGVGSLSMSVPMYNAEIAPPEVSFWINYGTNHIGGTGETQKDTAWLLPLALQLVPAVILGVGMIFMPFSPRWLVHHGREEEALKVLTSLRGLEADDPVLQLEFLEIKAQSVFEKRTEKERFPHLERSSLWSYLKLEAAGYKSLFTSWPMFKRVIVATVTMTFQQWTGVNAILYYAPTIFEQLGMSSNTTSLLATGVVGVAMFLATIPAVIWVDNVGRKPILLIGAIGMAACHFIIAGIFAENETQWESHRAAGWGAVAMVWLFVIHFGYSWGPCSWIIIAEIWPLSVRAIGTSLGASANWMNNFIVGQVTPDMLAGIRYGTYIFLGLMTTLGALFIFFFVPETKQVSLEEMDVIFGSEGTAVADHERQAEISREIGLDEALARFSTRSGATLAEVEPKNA
Description: competition of […]glucose uptake in S. cerevisiae EBY.VW4000 expressing xtrD. Format: cell-based. Particulars: 10- and 20-fold excess unlabeled xylose over glucose, respectively; 5 s uptake, 30 °C.

`OC1OC[C@@H](O)[C@H](O)[C@H]1O` (stereo partly shown) [xylose]: the “% inhibition of radiolabeled glucose transport at 10- and 20-fold excess” value is recorded as 90% to 100%.
